According to patent US11339185B2, “Cyclic dinucleotides as anticancer agents” (Bristol-Myers Squibb Company, priority 2018, dated 2022):
Like-named read-outs stand apart in the source and are kept apart here.

Key:
[1] = tested on: THP1-Dual cells, NF-κB pathway; assay: STING THP1 Reporter Assay, NF-κB pathway (SEAP, QUANTI-Blue); format: cell-based; settings: 10% human plasma, SEAP readout (OD620), 100% activation = 100 μM cGAMP, read-out: THP1 Reporter Assays EC50 (μM) NFkB
Description: (§1) THP1-Dual™ cells were derived from the human THP-1 monocyte cell line by stable integration of two inducible reporter constructs. To this end, THP1-Dual™ cells allow the simultaneous study of the NF-κB pathway, by monitoring the activity of SEAP, and the IRF pathway by assessing the activity of a secreted luciferase (Lucia). Both reporter proteins are readily measurable in the cell culture supernatant when using QUANTI-Blue™, a SEAP detection reagent, and QUANTI-Luc™, a luciferase detection reagent.
(§2) THP1-Dual™ cells induce the activation of NF-κB in response to STING agonists. They also trigger the IRF pathway upon stimulation with STING agonists, such as cGAMP. Here, the THP-1-Dual cells were used to assess STING binders for function on the cellular level.
(§3) Serial dilutions of compounds in DMSO were added to low volume 384 well plates at 100 nl/well using an ECHO acoustic dispenser (Labcyte, model 550) to achieve final starting concentration of 100 μM in cell suspension. THP-1 Dual™ STING reporter cells (Invivogen, Dual cells cat #THPD-nfis) were added to the plates with compounds at 15,000 cells in 10 μL per well in RPMI media (Gibco, cat #11875) containing 10% human plasma in a low volume 384-well black wall clear bottom tissue culture plate (Corning, cat #3542) for SEAP assay and low volume solid white plate (Corning, cat #3826) for luciferase assay. One column of the plate was reserved for treatment with cGAMP at 100 μM for 100% activation calculation and one column for no treatment (DMSO only) for baseline activation. Plates were then incubated in 37 OC incubator at 5% CO2 for 20 hours.
(§4) In the SEAP assay, 5 μl of 2× QuantiBlue (Invivogen, cat #Rep-qb2) is added to 384 well black plates seeded with THP1 cells and incubated at 37° C. for 2 hours. Plates were read on the Envision (Perkin Elmer) at 620 nm wavelength (OD620). In the luciferase assay, 5 μl of Quantiluc (Invivogen, Rep-qlc2) is added to white 384 well plates seeded with THP1 cells and read at 5 minutes on the Envision (Perkin Elmer) using a luminescence protocol (RLU). For both cell lines, 100% activation was determined by value (RLU) of THP-1 Dual STING cells stimulated with 100 μM cGAMP (Invivogen, cat #TLRL-NACGA23-5).

[2] = biological target: T1, STING AQ: His-TVMV-S-hSTING(155-341)-G230A-R293Q (Homo sapiens, UniProt Q86WV6, G230A/H232R/R293Q); assay: STING HTRF binding assay (time resolved FRET competition), STING AQ; settings: 20 nM His-tagged STING AQ cytoplasmic domain, 40 nM fluorescein-labeled cGAMP analog probe, one hour; read-out: HTRF Binding Assays IC50 (μM) AQ
T1 construct: STING AQ: His-TVMV-S-hSTING(155-341)-G230A-R293Q
T1 sequence (Q86WV6 with tags, fused parts or gaps G230A/H232R/R293Q): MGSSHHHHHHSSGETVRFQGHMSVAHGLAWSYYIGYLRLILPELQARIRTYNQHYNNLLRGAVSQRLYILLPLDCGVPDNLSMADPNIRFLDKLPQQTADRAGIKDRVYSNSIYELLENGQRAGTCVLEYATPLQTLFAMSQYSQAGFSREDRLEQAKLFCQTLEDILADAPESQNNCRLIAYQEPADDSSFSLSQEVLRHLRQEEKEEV
Procedure: (§5) A time resolved FRET-based competition binding assay was used to assess test article binding to STING WT and STING AQ. His-tagged STING cytoplasmic domain (WT or AQ) at a concentration of 20 nM was incubated with 2.5 nM Tb-labeled anti-His antibody, test compound, and fluorescein-labeled cGAMP analog probe (BioLog cat. no. C195) at a concentration of 200 nM (STING WT) or 40 nM (STING AQ) in PBS containing 0.005% Tween-20 and 0.1% BSA for one hour. Fluorescence at 495 nm and 520 nm was measured using an EnVision microplate reader to quantify FRET between Tb-labeled anti-His antibody and fluorescein-labeled probe. Background was defined as the signal obtained in the absence of STING protein, and background subtracted FRET ratios were normalized to the maximum signal obtained in the absence of test compound. These values were converted to a percent inhibition. Percent inhibition was determined for test compounds at 11 concentrations. The IC50, defined as the concentration of competing test compound needed to reduce specific binding of the probe by 50%, was calculated using the 4 parameter logistic equation to fit the data

[3] = tested on: THP1-Dual cells, IRF pathway (IRF3); assay: STING THP1 Reporter Assay, IRF pathway (secreted Lucia luciferase, QUANTI-Luc); format: cell-based; settings: 10% human plasma, luciferase readout, 100% activation = 100 μM cGAMP, read-out: THP1 Reporter Assays EC50 (μM) IRF3
Description: as §1, §2, §3, §4

[4] = biological target: T2, STING WT: His-TVMV-S-hSTING(155-341)-H232R (Homo sapiens, UniProt Q86WV6, H232R); assay: STING HTRF binding assay (time resolved FRET competition), STING WT; settings: 20 nM His-tagged STING WT cytoplasmic domain, 200 nM fluorescein-labeled cGAMP analog probe, one hour; read-out: HTRF Binding Assays IC50 (μM) WT
T2 construct: STING WT: His-TVMV-S-hSTING(155-341)-H232R
T2 sequence (Q86WV6 with tags, fused parts or gaps H232R): as the sequence (Q86WV6 with tags, fused parts or gaps G230A/H232R/R293Q) above, with A99G, Q162R counted along it
Procedure: as §5

| EC50 ([1]; 20 hours) [µM] | IC50 [2] [µM] | EC50 ([3]; 20 hours) [µM] | IC50 [4] [µM] | EC50 ([1]; Homo sapiens, THP1-Dual, 20 h) [µM] | EC50 ([3]; Homo sapiens, THP1-Dual, 20 h) [µM] | Structure (SMILES) |
| --- | --- | --- | --- | --- | --- | --- |
| 25 | 0.004 | 5.36 | 0.15 | – | – | Nc1ncnc2c1ncn2[C@@H]1O[C@@H]2COP(=O)(S)OC[C@@H]3[C@@H](COP(=O)(S)O[C@H]2[C@H]1F)C[C@H]3n1cnc2c(=O)n3cnnc3[nH]c21 (single isomer, unassigned) [Example 21-1] |
| – | 0.1 | – | 11.1 | > 100 | > 100 | Nc1ncnc2c1ncn2[C@@H]1C[C@@H]2COP(=O)(O)O[C@@H]3[C@H](O)[C@@H](COP(=O)(S)OC[C@H]21)O[C@H]3n1cnc2c(=O)n3ccnc3[nH]c21 (single isomer, unassigned) [Example 4-1] |
| – | 0.002 | – | 0.12 | 11.5 | 3.01 | Nc1ncnc2c1ncn2[C@@H]1C[C@@H]2COP(=O)(S)O[C@@H]3[C@H](F)[C@@H](COP(=O)(O)OC[C@H]21)O[C@H]3n1cnc2c(=O)n3ccnc3[nH]c21 (stereo partly drawn) [Example 7, 3-[(1S,6S,8R,9R,15R,17R,18R)-8-(6-amino-9H-purin-9-yl)-18-fluoro-3,12-dihydroxy-12-oxo-3-sulfanylidene-2,4,11,13,16-pentaoxa-3λ^5,12λ^5-diphosphatricyclo[13.2.1.0^6,9]octadecan-17-yl]-3H,5H,9H-imidazo[1,2-a]purin-9-one] |
| 54.6 | 0.01 | 41 | 0.19 | – | – | Nc1ncnc2c1ncn2[C@@H]1O[C@@H]2COP(=O)(S)OC[C@@H]3[C@@H](COP(=O)(S)O[C@H]2[C@H]1F)C[C@H]3n1cnc2c(O)n3ccnc3nc21 (single isomer, unassigned) [Example 1-1] |
| 32.4 | 0.08 | 26.1 | 0.35 | – | – | Nc1ncnc2c1ncn2[C@@H]1C[C@@H]2COP(=O)(S)O[C@@H]3[C@H](F)[C@@H](COP(=O)(S)OC[C@H]21)O[C@H]3n1cnc2c1ncn1ccnc21 (single isomer, unassigned) [Example 8-4] |
| > 100 | 5.73 | > 100 | > 100 | – | – | Nc1ncnc2c1ncn2[C@@H]1C[C@@H]2COP(=O)(S)O[C@H]3[C@@H](O)[C@H](n4cnc5c(=O)n6cc[nH]c6nc54)O[C@@H]3COP(=O)(S)OC[C@H]21 (single isomer, unassigned) [Example 5-3] |
| > 100 | 3.41 | > 100 | 11.1 | – | – | Nc1ncnc2c1ncn2[C@@H]1C[C@@H]2COP(=O)(S)O[C@@H]3[C@H](F)[C@@H](COP(=O)(S)OC[C@H]21)O[C@H]3n1cnc2c1ncn1ccnc21 (single isomer, unassigned) [Example 8-1] |
| > 100 | 0.22 | > 100 | 9.24 | – | – | Nc1ncnc2c1ncn2[C@@H]1C[C@@H]2COP(=O)(S)O[C@@H]3[C@H](F)[C@@H](COP(=O)(S)OC[C@H]21)O[C@H]3n1cnc2c(=O)n3cc[nH]c3nc21 (single isomer, unassigned) [Example 6-3] |

More lines, now with the values behind:

| Structure (SMILES) | EC50 ([1]; 20 hours) [µM] | IC50 [2] [µM] | EC50 ([3]; 20 hours) [µM] | IC50 [4] [µM] | EC50 ([1]; Homo sapiens, THP1-Dual, 20 h) [µM] | EC50 ([3]; Homo sapiens, THP1-Dual, 20 h) [µM] |
| --- | --- | --- | --- | --- | --- | --- |
| Nc1ncnc2c1ncn2[C@@H]1O[C@@H]2COP(=O)(S)OC[C@@H]3[C@@H](COP(=O)(S)O[C@H]2[C@H]1F)C[C@H]3n1cnc2c(O)n3ccnc3nc21 (single isomer, unassigned) [Example 1-3] | > 100 | 0.02 | > 100 | 0.84 | – | – |
| NC(=O)c1cc([C@@H]2O[C@@H]3COP(=O)(S)OC[C@@H]4[C@@H](COP(=O)(S)O[C@@H]2[C@@H]3O)C[C@H]4n2cnc3c(N)ncnc32)ccn1 (single isomer, unassigned) [Example 20-1] | > 100 | > 100 | > 100 | > 100 | – | – |
| O=P1(S)OC[C@@H]2[C@@H](COP(=O)(S)O[C@H]3[C@@H](F)[C@H](n4cnc5c4ncn4ccnc54)O[C@@H]3CO1)C[C@H]2n1cnc2c(Cl)ncnc21 (single isomer, unassigned) [Example 18-3] | > 100 | 2.81 | > 100 | > 100 | – | – |
| Nc1ncnc2c1ncn2[C@@H]1O[C@@H]2COP(=O)(S)OC[C@@H]3[C@@H](COP(=O)(S)O[C@H]2[C@H]1F)C[C@H]3n1cnc2c(=O)[nH]cnc21 (single isomer, unassigned) [Example 22-4] | 91.7 | 0.01 | 13 | 0.12 | – | – |
| NC(=O)c1cc([C@@H]2C[C@@H]3COP(=O)(S)OC[C@@H]4[C@@H](COP(=O)(S)OC[C@H]32)C[C@H]4n2cnc3c(N)ncnc32)ccn1 (single isomer, unassigned) [Example 15-2] | – | 73.5 | > 100 | > 100 | – | – |
| Nc1ncnc2c1ncn2[C@@H]1C[C@@H]2COP(=O)(S)O[C@H]3[C@@H](F)[C@H](n4cnc5c4ncn4ccnc54)O[C@@H]3COP(=O)(S)OC[C@H]21 (single isomer, unassigned) [Example 17-2] | > 100 | 0.46 | > 100 | 39 | – | – |
| Nc1ncnc2c1ncn2[C@@H]1C[C@@H]2COP(=O)(S)O[C@H]3[C@@H](F)[C@H](n4cnc5c4ncn4ccnc54)O[C@@H]3COP(=O)(S)OC[C@H]21 (single isomer, unassigned) [Example 17-3] | 89.6 | 0.11 | 73.7 | 5.22 | – | – |
| NC(=O)c1cc([C@@H]2C[C@@H]3COP(=O)(S)O[C@H]4[C@@H](F)[C@H](n5cnc6c(N)ncnc65)O[C@@H]4COP(=O)(S)OC[C@H]32)ccn1 (single isomer, unassigned) [Example 10] | > 100 | 2.3 | > 100 | 40.9 | – | – |
| O=P1(S)OC[C@@H]2[C@@H](COP(=O)(S)O[C@H]3[C@@H](F)[C@H](n4cnc5c4ncn4ccnc54)O[C@@H]3CO1)C[C@H]2n1cnc2c(Cl)ncnc21 (single isomer, unassigned) [Example 18-1] | – | 26.4 | – | > 100 | > 100 | > 100 |
| Nc1ncnc2c1ncn2[C@@H]1O[C@@H]2COP(=O)(S)OC[C@@H]3[C@@H](COP(=O)(S)O[C@H]2[C@H]1F)C[C@H]3n1cnc2c(=O)[nH]cnc21 (single isomer, unassigned) [Example 22-1] | – | 0.1 | > 100 | 5.68 | > 100 | – |
| Nc1ncnc2c1ncn2[C@@H]1O[C@@H]2COP(=O)(S)OC[C@@H]3[C@@H](COP(=O)(S)O[C@H]2[C@H]1F)C[C@H]3n1cnc2c(=O)[nH]cnc21 (single isomer, unassigned) [Example 22-2] | > 100 | 0.02 | > 100 | – | – | – |
